We go through five compounds from patent US9023810B2, “Use of a compound comprising D-mannoheptulose and/or perseitol for treating and preventing innate immunity modification diseases” (Laboratories Expanscience, priority 2004, dated 2015).

The test system of test [1] is hBD-2. Briefly: Induction of hBD-2 in KB epithelial cells, ELISA on cells related to MTT. Type of test: cell-based, human. Conditions: 48 hours, 100 ng/ml. As to the method: (§1) The cells KB (ATCC CCL-17), line of epithelial cells from a human oral carcinoma, commonly used in studies of the buccal cavity, were inoculated in plaques of 96 wells and cultivated in RPMI 1640 (Roswell Park Memorial Institute Medium) with Glutamax™1 at 10% VFS (veal fœtal serum)+antibiotics.
(§2) After 24 hours of incubation, the culture medium was eliminated and the cellular carpet was rinsed twice with PBS.
(§3) The cells were then treated under the conditions defined above during 24 and 48 hours: • Control cells: medium only • TNFα (commercialised by Sigma) at 100 ng/ml • hydrosoluble extract of sugars of avocado (40% mannoheptulose/40% perseitol) at 0.005-0.05 and 0.5 w/w (of dry matter) (batch A) 3. End of Treatment • Analysis of the antimicrobial peptides by ELISA on cells
After 48 hours of incubation under the different treatment conditions, the β-defensins 2 and 3 and the LL-present in the cells KB were analysed by an ELISA method on cells. […]
(§4) For each condition of treatment, the OD450 AMPs (antimicrobial peptides) was divided by the OD570 MTT to calculate the quantity of AMPs produced per living cell.
(§5) The averages and the standard deviations were calculated for each condition and the induction of different AMPS was calculated as the percentage increase with respect to the control cells.

Test [2] relates to LL-37. The test is described as follows: Induction of LL-37 in KB epithelial cells, ELISA on cells related to MTT. Type of test: cell-based, human. Conditions: 48 hours, 100 ng/ml. As to the method: as §1, §2, §3
(§6) After 48 hours of incubation under the different treatment conditions, the β-defensins 2 and 3 and the LL-present in the cells KB were analysed by an ELISA method on cells.
(§7) In order to determine the total number of cells in each well, a test with MTT was run in parallel on the cells treated under the same conditions. • Utilisation of the results
as §4, §5

Test [3] deals with hBD-3. Briefly: Induction of hBD-3 in KB epithelial cells, ELISA on cells related to MTT. Type of test: cell-based, human. Particulars: 48 hours, 100 ng/ml. As to the method:
as §1, §2, §3, §6, §7, §4, §5
Background: An ELISA detects its analyte on a solid surface through an enzyme-linked reagent.

Test [4] concerns hBD-2. The test is described as follows: Expression of hBD-2 modulated by IL-4 in keratinocytes, in vitro modelling of atopic dermatitis. Type of test: cell-based, human. The protocol:
The keratinocytes of normal humans were inoculated as described in example 3.
After 24 hours of incubation at 37° C., 5% of CO2, the culture medium was eliminated and the cellular carpet was rinsed twice with PBS. The cells were then treated for 24 hours under the conditions defined below: • Control cells: medium only • IL-1β at 100 ng/ml (positive control for induction of hBD-2) • IL-4 at 50 ng/ml • Hydrosoluble extract of sugars of avocado (batch A) at 0.5% w/w of dry matter • IL-1β at 100 ng/ml and IL-4 at 50 ng/ml • IL-4 at 50 ng/ml and hydrosoluble extract of sugars of avocado (batch A) at 0.05% w/w of dry matter • IL-1β at 100 ng/ml and IL-4 at 50 ng/ml and hydrosoluble extract of sugars of avocado (batch A) at 0.05% w/w of dry matter
At the end of the treatment, the induction of hBD-2 was evaluated by an ELISA method on cells; in parallel, in order to determine the total number of cells in each well, a test with MTT was run in parallel on the cells treated under the same conditions. Thus, for each condition, the OD450 hBD-2 was divided by the OD570 MTT to obtain the quantity of hBD-2 produced per living cell.

The subject of test [5] is hBD-2. The test is described as follows: Induction of hBD-2 in normal human keratinocytes, ELISA on cells related to MTT (Examples 3, 6, 7). Type of test: cell-based. Particulars: for production of hBD-2 (in words): Example 7, tested separately, commercial origin; for Modulation of the synthesis of HBD-2 (% increase with respect to control cells): proportions corresponding to 1% of a 5% solution of MS of batch A, i.e. 0.05% MS. The protocol: The keratinocytes of normal humans were inoculated in a 96 well plaque (about 20000 cells/well), in the presence of a specific medium enriched in calcium (final concentration 1.3 mM), as previously described in the publication “Human β-Defensin-2 production in Keratinocytes is regulated by Interleukin-1, Bacteria, and the State of Differentiation”, Alice Y. Liu et al., The Society for Investigative Dermatology, vol. 118, No. 2, February 2002, pages 275 to 281.
After an incubation of 24 hours at 37° C., 5% CO2: • 2 rinses with 200 μl/well of PBS (phosphate buffer in saline solution) • stimulation of the cells by 200 μl/well (in a Ca^++ supplemented medium): • by the hydrosoluble extract of sugars of avocado at concentrations of 0.5, 0.05 and 0.005 w/w of dry matter • by IL-1β at a concentration of 100 ng/ml (positive control of induction of hBD-2) III. End of Treatment (J2): ELISA
After 24 hours of incubation, the induction of the hBD-2 was evaluated by an ELISA method with a specific antibody (goat polyclonal to human BD2; Abcam; ab9871). The results obtained with the hydrosoluble extract of sugars of avocado, batch A, comprising 40% of D-mannoheptulose and 40% perseitol, based on the dry weight, are summarised in Table 8 below:
The same test as in example 3 was carried out with: • a mixture of fructose (5%), glucose (5%) and saccharose (3%); • D-mannoheptulose (40%); • perseitol (40%); • a mixture of fructose (5%), glucose (5%) saccharose (3%) and D-mannoheptulose (40%); • a mixture of fructose (5%), glucose (5%) saccharose (3%) and perseitol (40%); • a mixture of fructose (5%), glucose (5%) saccharose (3%) D-mannoheptulose (40%) and perseitol (40%); and • an extract of avocado sugars (batch A).
The same test as in example 3 was carried out with commercially available D-mannoheptulose and perseitol.

The subject of test [6] is tumorous cells of Ehrlich ascites sarcoma. Particulars: perseitol associated with a potassium ion; cited from earlier work.
[7] abbreviates: Example 7, commercial origin, 0.0012%.
Setting [8] is: Example 7, commercial origin, 0.012%.

“And” between values parts separate entries of the source, which are not always exact repeats. Identical values can stand only once.

For TNFα, in test [1], the “Induction of HBD-2 % increase” value was 239% and the “OD hBD2/OD MTT average” value is on record as 0.037. Further, in test [2], the “Induction of LL-37 % increase” value is 88%; the “OD LL-37/OD MTT (wells)” value is 0.080 and 0.072 and 0.077 and 0.091 and 0.082 and 0.076; the “OD LL-37/OD MTT average” value came to 0.080. Moreover, in test [3], the “Induction of HBD-3 % increase” value stood at 30%; the “OD hBD3/OD MTT (wells)” value was 0.431 and 0.448 and 0.399 and 0.407 and 0.374; the “OD hBD3/OD MTT average” value is recorded as 0.410.
In the case of “IL-1β: positive control of induction of hBD-2, 100 ng/ml”, the “hBD-2/MTT (single values)” value in test [4] (24 hours, IL-1β 100 ng/ml) is 0.291 OD and 0.308 OD and 0.347 OD; in test [5] (keratinocytes, 24 h, 100 ng/ml), 0.223 OD and 0.324 OD and 0.273 OD and 0.322 OD. Moreover, the “increase in the synthesis of hBD-2 with respect to the control cells” value in test [4] (IL-1β 100 ng/ml) amounted to 80%. For the same compound, the “Average (hBD-2, same test as in example 3)” value in test [5] (Example 7, positive control) was determined as 0.104. Besides, the “% increase vs. control” value in test [5] (keratinocytes, 24 h, 100 ng/ml) stood at 128%.
For the compound “IL-4: interleukine-4, mediator of atopy, 50 ng/ml”, in test [4] (24 hours, IL-4 50 ng/ml), the “hBD-2/MTT (single values)” value was 0.160 OD and 0.158 OD and 0.163 OD; the “hBD-2/MTT Average” value is 0.160 +/− 0.002 OD. The “inhibition of the synthesis of hBD-2 induced by IL-1β” value in test [4] (IL-4 50 ng/ml with IL-1β 100 ng/ml) amounted to 32%. Moreover, the “influence on the quantity of hBD-2 expressed by the keratinocytes (in words)” value in test [4] (IL-4 alone, 50 ng/ml) is “no influence”.
As for `O=C(CO)[C@@H](O)[C@@H](O)[C@H](O)[C@H](O)CO` [D-mannoheptulose], the “effect on the synthesis of HBD-2 (in words)” value in test [5] (Example 6, sugars in the proportions of batch A) is reported as “more active than the perseitol”. For the same compound, the “Average (hBD-2, same test as in example 3)” value in test [5] (setting [7]) and in test [5] (setting [8]) was 0.089 each time. The “production of hBD-2 (in words)” value in test [5] is “capable of inducing the production of hBD-2”. The “Modulation of the synthesis of HBD-2 (% increase with respect to control cells)” value in test [5] came to 31%.
Turning to `OCC(O)C(O)C(O)C(O)C(O)CO` (stereo not drawn) [Perseitol], the “Average (hBD-2, same test as in example 3)” value in test [5] (setting [7]) stood at 0.063. For the same compound, the “Average (hBD-2, same test as in example 3)” value in test [5] (setting [8]) was found to be 0.090. In addition, in test [5], the “production of hBD-2 (in words)” value is “capable of inducing the production of hBD-2” and the “Modulation of the synthesis of HBD-2 (% increase with respect to control cells)” value is listed as 12%. The “incorporation of leucine-3H into tumorous cells (in words)” value in test [6] is recorded as “enables leucine-3H to be incorporated”.
